{
  "source": "patent US12180210B2",
  "about": "“Compounds” (INTRA-CELLULAR THERAPIES, INC., priority 2018, dated 2024)",
  "key": {"PDE3": {"test_system": "PDE3", "experiment": "PDE isoform inhibition, IMAP procedure", "type": "biochemical"}, "mice [1]": {"test_system": "mice", "experiment": "Elevated plus maze, acute anxiolytic activity", "conditions": "compound 1, 2, and 5 mg/kg, i.p., diazepam 0.5 mg/kg"}, "[2]": {"test_system": "CREB (cAMP response element-binding protein)", "experiment": "Phosphorylation of effector proteins under cGMP/cAMP control: CREB", "type": "cell-based"}, "BDNF": {"test_system": "BDNF", "experiment": "Expression of the growth factor BDNF", "type": "cell-based"}, "PDE5": {"molecular_target": "PDE5 (Homo sapiens, UniProt O76074)", "experiment": "PDE isoform inhibition, IMAP procedure", "type": "biochemical"}, "[3]": {"test_system": "VASP (vasodilator stimulated phosphoprotein)", "experiment": "Phosphorylation of effector proteins under cGMP/cAMP control: VASP", "type": "cell-based"}, "PDE4": {"test_system": "T1, PDE4", "T1 construct": "PDE4 IC50", "experiment": "PDE isoform inhibition, IMAP procedure", "type": "biochemical"}, "PDE6": {"test_system": "PDE6", "experiment": "PDE isoform inhibition, IMAP procedure", "type": "biochemical"}, "[4]": {"test_system": "HT-22 (hippocampal-like) cells", "experiment": "cGMP levels in HT-22 cells stimulated by NMDA", "type": "cell-based"}, "in vivo": {"experiment": "in vivo", "conditions": "mouse, po, 10 mg/kg"}, "HT22 cells": {"test_system": "HT22 cells", "experiment": "cAMP levels in HT22 cells stimulated by isoproterenol", "type": "cell-based"}, "mice [5]": {"test_system": "mice", "experiment": "Tail suspension paradigm, acute antidepressant-like activity", "type": "in vivo"}, "mice [6]": {"test_system": "mice", "experiment": "Forced swim paradigm, acute antidepressant-like activity", "type": "in vivo"}, "mice [7]": {"test_system": "mice", "conditions": "mouse, in vivo"}, "PDE1": {"test_system": "PDE1", "experiment": "PDE isoform inhibition, IMAP procedure", "type": "biochemical"}, "[8]": {"test_system": "cGMP and cAMP levels in hippocampus", "experiment": "In vivo levels of cGMP and cAMP in mouse brain (hippocampus)", "conditions": "mice killed 30 min after injection", "method": "For these studies, mice were killed 30 min after injection of each drug/dose and hippocampus isolated and used for measurement of cyclic nucleotides."}, "[9]": {"experiment": "Pharmacokinetic study in mice, plasma and brain availability", "conditions": "single oral dose 10 mg/kg PO"}, "mice [10]": {"test_system": "mice", "experiment": "Spontaneous locomotor activity", "conditions": "same dose levels that increased anxiolytic activity"}, "mice [11]": {"test_system": "mice", "experiment": "Hole board test, acute anxiolytic activity", "conditions": "compound 1, 2, and 5 mg/kg, i.p., diazepam 0.5 mg/kg"}},
  "note": "Read-outs that look alike come from different tables or passages of the source.",
  "data": [
    {"smiles": "Cc1ccc(-c2c(-c3nc(C)n4ccnc(N5CCC5)c34)cnn2C)cc1", "note": "[Compound 1, 8-(azetidin-1-yl)-3-methyl-1-(1-methyl-5-(p-tolyl)-1H-pyrazol-4-yl)imidazo[1,5-a]pyrazine]", "values": [
      {"measurement": "IC50", "setting": "PDE3", "value": "> 100", "unit": "µM"},
      {"measurement": "Open arm entrances, elevated plus maze", "setting": "mice [1]", "value": "significantly increased open arm entrances"},
      {"measurement": "Phosphorylation of CREB", "setting": "[2]", "value": "concentration-dependent increase"},
      {"measurement": "Expression of BDNF", "setting": "BDNF", "value": "increased the expression"},
      {"measurement": "IC50", "setting": "PDE5", "value": 15.1, "unit": "µM"},
      {"measurement": "Phosphorylation of VASP", "setting": "[3]", "value": "concentration-dependent increase"},
      {"measurement": "IC50", "setting": "PDE4", "value": 24.8, "unit": "µM"},
      {"measurement": "IC50", "setting": "PDE6", "value": "> 100", "unit": "µM"},
      {"measurement": "Optimal dose for stimulation of cGMP levels", "setting": "[4]", "value": 10, "unit": "nM"},
      {"measurement": "cGMP levels", "setting": "[4]; NMDA (20 μM), 15 min incubation", "value": "dose-dependent increase"},
      {"measurement": "AUC(0-t)", "setting": "in vivo", "value": 119, "unit": "ng·h/mL"},
      {"measurement": "Cmax", "setting": "in vivo", "value": 268, "unit": "ng/mL"},
      {"measurement": "Tmax", "setting": "in vivo", "value": 30, "unit": "min"},
      {"measurement": "half-life", "setting": "in vivo", "value": 48, "unit": "min"},
      {"measurement": "Optimal dose for stimulation of cAMP levels", "setting": "HT22 cells", "value": 10, "unit": "nM"},
      {"measurement": "cAMP levels", "setting": "HT22 cells; isoproterenol (ISO, 10 nM)", "value": "dose-dependent increase"},
      {"measurement": "Immobility time / antidepressant-like activity, tail suspension", "setting": "mice [5]", "value": "significantly reduced immobility time"},
      {"measurement": "Immobility time / antidepressant-like activity, forced swim", "setting": "mice [6]", "value": "significantly reduced immobility time"},
      {"measurement": "Spontaneous locomotor activity", "setting": "mice [7]", "value": "did not significantly affect spontaneous locomotor activity"},
      {"measurement": "IC50", "setting": "PDE1", "value": 8.3, "unit": "µM"},
      {"measurement": "cAMP levels in hippocampus", "setting": "[8]", "value": "significant increases"},
      {"measurement": "cGMP levels in hippocampus", "setting": "[8]", "value": "significant increases"}
    ]},
    {"smiles": "COc1ccc(Cc2nn3c([C@@H](CCCc4ccccc4)[C@@H](C)O)nc(C)c3c(=O)[nH]2)cc1OC", "note": "[BAY-7550]", "values": [
      {"measurement": "Tmax", "setting": "[9]", "value": 0.25},
      {"measurement": "Open arm entrances, elevated plus maze", "setting": "mice [1]", "value": "small trends for these assays that did not achieve statistical significance"},
      {"measurement": "Open arm entrances, elevated plus maze", "setting": "mice [1]; listed as commercial PDE2 inhibitor", "value": "no statically significant effect"},
      {"measurement": "Immobility time / antidepressant-like activity, tail suspension", "setting": "mice [5]", "value": "generally smaller effects that did not reach significance in all assays"},
      {"measurement": "Immobility time / antidepressant-like activity, forced swim", "setting": "mice [6]", "value": "generally smaller effects that did not reach significance in all assays"}
    ]},
    {"smiles": "CN1C(=O)CN=C(c2ccccc2)c2cc(Cl)ccc21", "note": "[Diazepam, diazepam]", "values": [
      {"measurement": "Open arm entrances, elevated plus maze", "setting": "mice [1]", "value": "increased entrance into open arms"},
      {"measurement": "Spontaneous locomotor activity", "setting": "mice [10]", "value": "did not significantly affect spontaneous locomotor activity"},
      {"measurement": "Exploration, hole board test", "setting": "mice [11]", "value": "increased explorations"}
    ]},
    {"smiles": "CNCCCN1c2ccccc2CCc2ccccc21", "note": "[Desipramine, desipramine]", "values": [
      {"measurement": "Immobility time / antidepressant-like activity, tail suspension", "setting": "mice [5]", "value": "induced signs of antidepressant-like activity"},
      {"measurement": "Immobility time / antidepressant-like activity, forced swim", "setting": "mice [6]", "value": "induced signs of antidepressant-like activity"}
    ]}
  ]
}
